Experimental data reported in paper PMC6848146, “Binding and structural analyses of potent inhibitors of the human Ca^2+/calmodulin dependent protein kinase kinase 2 (CAMKK2) identified from a collection of commercially-available kinase inhibitors” (Scientific Reports, 2019).

Assays:
[1] = biological target: T1, CAMKK2-KD (kinase domain of CAMKK2) (Homo sapiens, UniProt Q96RR4); experiment: DSF thermal-shift screen, 96-well format; assay type: binding; details: 96-well format; 12 µM compound, 2 µM kinase, 2.5% DMSO; single measurement; read-out: ΔTm
T1 construct: the protein kinase domain (amino acids 161–449); hexahistidine (6xHis), TEV-cleavable; made in house
T1 sequence (Q96RR4 161-449): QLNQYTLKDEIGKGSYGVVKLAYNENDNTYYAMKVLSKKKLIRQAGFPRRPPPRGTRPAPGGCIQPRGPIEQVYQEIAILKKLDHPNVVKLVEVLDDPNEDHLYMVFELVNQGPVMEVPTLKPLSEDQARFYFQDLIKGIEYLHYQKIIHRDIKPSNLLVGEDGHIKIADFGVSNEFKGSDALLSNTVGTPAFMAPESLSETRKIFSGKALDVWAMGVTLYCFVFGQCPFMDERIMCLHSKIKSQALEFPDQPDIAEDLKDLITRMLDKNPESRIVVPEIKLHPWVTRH
Procedure: (§1) We employed a thermal-shift assay (Differential Scanning Fluorimetry, DSF)[19] to identify compounds that can bind to the kinase domain of CAMKK2 (CAMKK2-KD). Protein thermal denaturation curves (Fig. 1A,B) were used to calculate the denaturation midpoint temperature (Tm) for the kinase domain of CAMKK2 in the presence of ligands or vehicle only (DMSO). […] DSF screens were performed on purified CAMKK2-KD using a library of commercially available, chemically diverse, ATP-competitive, kinase inhibitors.
SYPRO Orange dye (Invitrogen) was used in 5X as final concentration.
Plates were sealed using optically clear films and transferred to an Mx3005p RT-PCR machine (Agilent).
(§2) For both formats, experiments were performed in singlets.

CAMKK2-FL = biological target: T2, CAMKK2-FL (Homo sapiens, UniProt Q96RR4); experiment: Radiometric enzymatic assay (Eurofins Discovery), Ca2+/Calmodulin present; assay type: biochemical; details: for IC50: 90 µM ATP, single measurement
T2 construct: an enzymatic assay using the full-length protein (CAMKK2-FL); purchased Eurofins Discovery (MO, USA), assay service

CAMKK1-FL = biological target: T3, CAMKK1-FL (Homo sapiens, UniProt Q8N5S9); experiment: as above; assay type: biochemical; details: 200 µM ATP; single measurement
T3 construct: purchased Eurofins Discovery (MO, USA), assay service
Procedure: All compounds employed in this study were initially developed to target other human protein kinases, and some are known to be quite promiscuous[18],[21].
Reaction conditions for assays using CAMKK1-FL were: 8 mM MOPS pH 7.0, 0.2 mM EDTA, 0.33 mg/mL MBP (myelin basic protein), 0.5 mM calcium chloride, 0.016 mg/ml calmodulin, 10 mM magnesium acetate and [gamma-^33P-ATP] (200 µM). […] The reactions were initiated by the addition of a Mg^2+-ATP mixture. After incubation for 40 minutes at room temperature, the reaction was stopped by the addition of phosphoric acid to a final concentration of 0.5%. […] Following subtraction of the average inhibitor control well counts, results were expressed as a percentage of the mean kinase activity in the positive control sample.

CAMKK2 = tested on: CAMKK2; set-up: method as in Anastassiadis et al. (2011); details: 0.5 µM compound; ref Anastassiadis et al. (2011); cited from earlier work
CAMKK1 = tested on: CAMKK1; set-up: method as in Anastassiadis et al. (2011); details: 0.5 µM compound; ref Anastassiadis et al. (2011); cited from earlier work
[2] = biological target: T1, CAMKK2-KD (kinase domain of CAMKK2); experiment: DSF thermal-shift screen, 384-well format; assay type: binding; details: 10 µM compound, 1 µM kinase, 0.1% DMSO, single measurement
Procedure: as §1
DSF experiments in 384-well format followed a protocol previously established at the SGC-UNICAMP and described elsewhere.
The compounds, previously solubilized in DMSO, were used at 10 µM final concentration and 0.1% DMSO. Plates were sealed using optically clear films and transferred to a QuantStudio 6 qPCR instrument (Applied Biosystems). […] Protein in 0.1% DMSO was used as a reference.
as §2

CAMKK2-KD = CAMKK2-KD (Homo sapiens, UniProt Q96RR4); experiment: Isothermal titration calorimetry (reverse titration); details: 20 °C
CAMKK2-KD, sequence (Q96RR4 161-449): as above
Procedure: All ITC experiments described below were performed twice.
Measurements were made using a MicroCal AutoITC200 (Malvern, United Kingdom). […] Small molecule inhibitors were diluted in dialysis buffer. All ITC experiments were performed using a “reverse titration” setup in which the protein (in the syringe) was titrated into the cell containing the inhibitor. Two independent ITC measurements were performed for each compound, data for individual runs were integrated separately to obtain single isotherms, which were plotted and analyzed using Sedphat[37]. […] All measurements were made at 20 °C with mixing (1,000 rpm stirring), and used 1.5 µL injections and 180 s between each injection. NITPIC, SEDPHAT and GUSSI[37] were used to analyze and generate figures for ITC data.

[3] = tested on: six other kinases (panel of 92 protein kinases); set-up: method as in PMID 17850214; details: screened against a panel of only 92 protein kinases; cited from earlier work
[4] = individual ITC experiment, run 1
[5] = individual ITC experiment, run 2

SMILES: CC(C)[C@H](CO)Nc1nc(Nc2cc(N)cc(Cl)c2)c2ncn(C(C)C)c2n1 [Aminopurvalanol]
- ΔTm at 12 µM [1]: 9.7 °C
- IC50 (CAMKK2-FL): 159 nM
- IC50 (CAMKK1-FL): 188 nM
- % Activity Remaining at 0.5 µM, CAMKK2 (CAMKK2): 33.3%
- % Activity Remaining at 0.5 µM, CAMKK1 (CAMKK1): 86.8%

SMILES: COCCOc1ccc2c(c1)ncn2-c1ccc2cccc(N3CCC(N)CC3)c2n1 [CP-673451]
- ΔTm at 10 µM [2]: 10 °C
- IC50 (CAMKK2-FL): 19 nM
- fold more active towards CAMKK2-FL than CAMKK1-FL (CAMKK2-FL; from IC50 values of Table 1): ~ 10 fold
- IC50 (CAMKK1-FL): 122 nM
- Kd (CAMKK2-KD; ITC KD, serial integrations of two independent experiments): 2 nM
- Kd (CAMKK2-KD; KD Run 1, individual ITC experiment, run 1): 2.6 nM
- Kd (CAMKK2-KD; KD Run 2, individual ITC experiment, run 2): 1.5 nM
- ΔG Run 1 (CAMKK2-KD; [4]): -11.5 kcal/mol
- ΔH Run 1 (CAMKK2-KD; [4]): -13.2 kcal/mol
- ΔG Run 2 (CAMKK2-KD; [5]): -11.8 kcal/mol
- ΔH Run 2 (CAMKK2-KD; [5]): -13 kcal/mol

SMILES: O=C(O)c1ccc2c3c1cccc3c(=O)n1c3ccccc3nc21 [STO-609]
- IC50 [3]: < 250 nM

SMILES: CN[C@@H]1C[C@H]2O[C@@](C)([C@@H]1OC)n1c3ccccc3c3c4c(c5c6ccccc6n2c5c31)C(=O)NC4 [Staurosporine]
- % Activity Remaining at 0.5 µM, CAMKK2 (CAMKK2): 0.24%
- % Activity Remaining at 0.5 µM, CAMKK1 (CAMKK1): -3.13%
